Measurements reported in patent US7482008B1, “Human T cell reactive feline protein (TRFP) isolated from house dust and uses therefor” (Merck Patent GmbH, priority 1989, dated 2009).

What was measured:
basophils = assay: Histamine release from basophils in heparinized whole blood of cat allergic patients; format: cell-based, human; conditions: eight cat allergic patients
Method: The histamine release assay used for these studies is based on the detection of an acylated derivative of histamine using a specific monoclonal antibody (Morel, A. M. and Delaage, M. A.; 1988, J. Allergy Clin. Immunol. 82:646-654.) This assay was performed as two separate protocols: 1) the release of histamine from basophils present in heparinized whole blood in the presence of different concentrations of antigens and 2) the actual assaying of histamine present in the supernates of the release reactions following cell removal by centrifugation. The reagents for this histamine radioimmunoassay are supplied commercially as a kit by Amac Inc. (Westbrook, Me.).
Whole blood was drawn from cat allergic patients using heparinized syringes or vacutainers. […] The buffer control consisted of whole blood with just buffer and no added antigen. The release reactions were then carried out at 37° C. for 30 minutes. After this incubation the tubes were centrifuged at 1500 RPM for 3 minutes and the supernates were carefully removed. It was important to spin gently so that there would be no cell lysis giving misleading results. […]
For the RIA analysis, a 50 μl aliquot of the release supernatant was diluted 1:4 with Histamine release buffer (supplied with the kit from Amac Inc.) Then 100 μl of each diluted supernatant was added to the tubes containing the acylation reagent (a lyophilized powder). […] Then they were counted on a gamma counter (Cobra 5005, Beckman Inc.) for two minutes/tube.
Following the quantitation of ^125I label/tube the standard curve is generated from the histamine standard counts and plotted on semi-log paper. Because this is a competition assay, with labelled ^125I tracer competing with the standards or unknowns for cell supernatants, the lower the recorded counts the greater the amount of cold acylated histamine in the binding assay. The data points were then generated by reading off the values on the plotted standard curve of counts versus histamine concentration (in nM).

[1] = tested on: human IgE (cat allergic patient plasma); assay: Direct binding ELISA of human IgE to coated antigen; conditions: for specific IgE binding: direct binding ELISA or similar protocol
Method: The basic format of these ELISA assays was a direct binding assay wherein the antigen was coated onto the wells of a 96 well microtitre dish and then antibodies in solution are added and assayed for the binding capacity. The protocol for these assays was as follows:
The peptides were conjugated to HSA (human serum albumin) by two different methods based on their chemical structure. […] Both conjugates were filter purified and dialyzed against PBS. In the ELISA assay, the unbound coating antigens were removed and the wells were blocked with 0.5% gelatin in PBS, 200 μl/well for 2 hours at room temperature. The antibody solution was a pool of plasma samples from 20 patients that were skin test positive for commercial cat extract which was serially diluted with PBS-Tween 20 (PBS with 0.05% nonionic detergent Tween-Sigma, St. Louis Mo.) and 100 μl/well was added and incubated overnight at 4° C. (plasma dilutions are tested in duplicate). […] The second antibody (biotinylated goat anti-Human IgE, 1:1000 Kirkegaard & Perry Laboratories Inc. Gaithersburg, Md.), was added at 100 μl/well for one hour at room temperature. This solution was removed and streptavidin-HRPO, 1:1000, (Southern Biotechnology Associates, Inc., Birmingham, Ala.) was then added at 100 μl/well for one hour at room temperature (all wells were washed three times with PBS-Tween between each incubation step). TMB Membrane Peroxidase Substrate system (Kirkegaard & Perry Laboratories) was freshly mixed, and added at 100 μl/well. The color was allowed to develop for 2-5 minutes. The reaction was stopped by the addition of […] of 1 M phosphoric acid. Plates are read on a Microplate EL 310 Autoreader (Biotek Instruments, Winooski, Vt.) with a 450 nm filter. The absorbance levels of duplicate wells were averaged.

[2] = tested on: T cells from cat-allergic patients; assay: Secondary proliferation assay of T cells primed with TRFP, peptide YXZ or peptide YZX; format: cell-based, human
Method: The human cat allergic T cell response to peptides produced as above was examined. […] Peptide YZX was cleaved with thrombin as described in Example 25. Viable cells were then purified by Ficoll-Hypaque centrifugation and cultured for 2 additional weeks in RPMI-1640/5% AB serum containing 5 units recombinant human IL-2/ml and 5 units recombinant human IL-4/ml. The resting T cells were then tested in a secondary proliferation assay using a 96 well microtiter plate to assess T cell responses to various TRFP proteins or peptides (TRFP antigens). For assay, 2×10^4 resting T cells were cultured for 3 days at 37° C. in the presence of 2×10^4 autologous Epstein-Barr virus transformed B cells (25,000 Rads) as antigen presenting cells with various concentrations of antigen in 200 μl per well. Each well then received 1 μCi tritiated thymidine for 16 hours. The counts incorporated were collected onto glass fiber filters and processed for liquid scintillation counting. The stimulation indices for responses to each antigen were then calculated as the maximum CPM in response to antigen divided by the medium control CPM. A stimulation index of 2.5 was considered to be a positive T cell response. A summary of the results of 3 such experiments (patients 522, 519, and 386 is shown in FIG. 35a, FIG. 35b and FIG. 35c). As compared to the experiments shown in FIGS. 35a and 35b in the experiment shown in […], Fel-1.4 (chain 1, amino acid residues 6-17) was substituted for Fel-1.2 (chain 1, amino acid residues 1-17) and Fel-33.3 (chain 2, amino acid residues 26-40) was substituted for Fel-18 (chain 2, amino acid residues 23-48) in order to more closely resemble the constituent amino acids of peptides X and Z. In addition, in this experiment one peptide derived from the Y-Z junction of peptide YZX (amino acid residues 50-55 from chain 1 of TRFP and amino acid residues 14-19 from chain 2 of TRFP) and one peptide derived from the Z-X junction of peptide YZX (amino acid residues 34-39 of chain 2 of TRFP and amino acid residues 7-12 of chain 1 of TRFP) were synthesized and tested. These junction peptides were produced in order to determine whether these areas of peptide YZX produce a non-native epitope when formed in the peptide.

[3] = patient 386, T cells primed with YZX
[4] = patient 386, T cells primed with native TRFP
[5] = patient 519, cells primed with peptide YXZ
[6] = patient 522, T cells primed with YXZ
[7] = patient 519, native TRFP-primed T cells
[8] = patient 522, T cells primed with native TRFP, SI 2.5 positive

Substance | histamine release (basophils) | specific IgE binding [1] | specific IgE binding ([1]; listed as Fel 8-3) | T cell response [2, 3] | T cell response [2, 4] | T cell response [2, 5] | T cell response [2, 6] | Positive Binding ([1]; ELISA, percent of cat allergic patients with positive IgE binding) [%] | absorbance reading, IgE binding ([1]; pooled plasma, first dilution 1:2 in PBS) | T cell response [2, 7] | T cell response [2, 8] | specific IgE binding ([1]; listed as Fel 30-4)
peptide X: amino acid residues 7-30 from chain 1 of TRFP (SEQ. ID. NO: 17); Table 2 lists Fel 8-3 as 7-33 (KRDVDLFLTGTPDEYVEQVAQYKALPV) | no discernible histamine release | do not demonstrate any specific IgE binding | No direct IgE binding | respond at a similar level or better | positively respond | positive responses | respond at a similar level or better |  |  |  |  | 
TRFP: human T cell reactive feline protein affinity purified from house dust; two covalently linked chains | at all but the lowest concentration, gives a clear release signal |  |  | respond at a similar level or better | positively respond | positive responses | respond less well | 100 | 0.65 | respond | positively respond | 
NARILKNCVDAKMTEEDKE [Fel 4, TRFP chain 1 amino acids 37-55] |  |  |  |  |  | positive responses | respond at a similar level or better |  |  |  |  | 
peptide Y: amino acid residues 29-55 from chain 1 of TRFP (SEQ. ID. NO: 18) (KALPVVLENARILKNCVDAKMTEEDKE) | no discernible histamine release | do not demonstrate any specific IgE binding |  | respond at a similar level or better | positively respond | positive responses | respond at a similar level or better |  |  | respond | positively respond | No direct IgE binding
